Measured values: ChEMBL document CHEMBL2073968, “Multidrug resistance protein 4 (MRP4/ABCC4) mediates efflux of bimane-glutathione” (Int J Biochem Cell Biol, 2004)

Assays:
[1] = biological target: T1, ATP-binding cassette sub-family C member 4 (Homo sapiens, UniProt O15439); experiment: TP_TRANSPORTER: efflux in MRP4-expressing HepG2 cells; assay type: functional, cell-based
T1 sequence (O15439 whole entry): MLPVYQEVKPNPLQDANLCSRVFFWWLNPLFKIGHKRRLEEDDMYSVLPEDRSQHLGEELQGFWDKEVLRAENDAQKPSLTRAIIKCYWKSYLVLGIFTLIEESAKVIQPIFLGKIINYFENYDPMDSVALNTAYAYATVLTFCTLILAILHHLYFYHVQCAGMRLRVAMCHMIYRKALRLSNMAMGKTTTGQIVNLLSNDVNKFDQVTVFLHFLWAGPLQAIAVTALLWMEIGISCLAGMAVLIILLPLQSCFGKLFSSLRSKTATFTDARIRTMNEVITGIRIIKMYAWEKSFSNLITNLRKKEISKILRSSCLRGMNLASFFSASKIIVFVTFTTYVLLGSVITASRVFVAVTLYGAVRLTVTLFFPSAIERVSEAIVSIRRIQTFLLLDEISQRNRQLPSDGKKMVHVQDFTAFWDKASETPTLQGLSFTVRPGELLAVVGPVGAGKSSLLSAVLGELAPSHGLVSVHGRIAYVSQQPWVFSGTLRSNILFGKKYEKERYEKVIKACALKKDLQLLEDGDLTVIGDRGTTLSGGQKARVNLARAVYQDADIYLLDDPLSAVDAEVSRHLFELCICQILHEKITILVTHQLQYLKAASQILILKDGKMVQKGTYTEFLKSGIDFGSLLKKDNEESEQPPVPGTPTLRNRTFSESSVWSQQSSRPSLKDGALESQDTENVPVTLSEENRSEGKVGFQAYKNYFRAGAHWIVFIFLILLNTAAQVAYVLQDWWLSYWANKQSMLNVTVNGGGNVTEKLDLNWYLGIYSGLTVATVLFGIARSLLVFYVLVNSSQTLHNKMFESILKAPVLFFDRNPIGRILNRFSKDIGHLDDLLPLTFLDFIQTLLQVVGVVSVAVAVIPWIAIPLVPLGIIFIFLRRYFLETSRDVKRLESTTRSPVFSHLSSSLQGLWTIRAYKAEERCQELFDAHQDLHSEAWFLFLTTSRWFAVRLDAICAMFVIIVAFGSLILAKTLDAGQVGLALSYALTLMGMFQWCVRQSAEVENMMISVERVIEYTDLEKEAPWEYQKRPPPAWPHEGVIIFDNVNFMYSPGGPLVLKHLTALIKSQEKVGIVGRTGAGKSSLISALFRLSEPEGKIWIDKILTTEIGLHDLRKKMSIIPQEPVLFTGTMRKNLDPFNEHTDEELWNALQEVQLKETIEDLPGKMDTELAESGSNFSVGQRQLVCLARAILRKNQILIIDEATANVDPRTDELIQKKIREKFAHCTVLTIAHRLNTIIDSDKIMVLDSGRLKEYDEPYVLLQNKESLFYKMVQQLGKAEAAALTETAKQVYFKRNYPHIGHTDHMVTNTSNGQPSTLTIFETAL

[2] = biological target: T2, MRP4 (ATP-binding cassette sub-family C member 4) (Homo sapiens, UniProt O15439); experiment: TP_TRANSPORTER: inhibition of bimane-GS efflux in the presence of Methotrexate at a concentration of 100uM in MRP4-expressing HepG2 cells; assay type: functional, cell-based; design: scale not given: the % may be the effect or the level left; details: probe bimane-GS, read-out: Activity
T2 sequence (O15439 whole entry): T1 sequence (O15439 whole entry)

[3] = biological target: T1, ATP-binding cassette sub-family C member 4; experiment: TP_TRANSPORTER: inhibition of bimane-GS efflux in the presence of Benzbromarone at a concentration of 5uM in MRP4-expressing HepG2 cells; assay type: functional, cell-based; design: scale not given: the % may be the effect or the level left; details: hepg2, 5 µM
[4] = biological target: T2, MRP4 (ATP-binding cassette sub-family C member 4); experiment: TP_TRANSPORTER: inhibition of bimane-GS efflux in the presence of 6-thioguanine at a concentration of 100uM in MRP4-expressing HepG2 cells; assay type: functional, cell-based; design: scale not given: the % may be the effect or the level left; details: probe bimane-GS, read-out: Activity
[5] = biological target: T1, ATP-binding cassette sub-family C member 4; experiment: TP_TRANSPORTER: inhibition of E217betaG uptake in membrane vesicles from MRP4-expressing Sf9 cells; assay type: functional, cell membranes, Membrane vesicle
[6] = biological target: T1, ATP-binding cassette sub-family C member 4; experiment: TP_TRANSPORTER: inhibition of bimane-GS efflux in the presence of 1-chloro-2,4-dinitrobenzen(2,4-dinitrophenyl-glutathione) at a concentration of 100uM in MRP4-expressing HepG2 cells; assay type: functional, cell-based; design: scale not given: the % may be the effect or the level left; details: hepg2, 100 µM
[7] = biological target: T1, ATP-binding cassette sub-family C member 4; experiment: TP_TRANSPORTER: inhibition of bimane-GS efflux in the presence of Indomethacin at a concentration of 50uM in MRP4-expressing HepG2 cells; assay type: functional, cell-based; design: scale not given: the % may be the effect or the level left; details: hepg2, 50 µM

Q: With `Cc1c(C)n2c(CSC[C@H](NC(=O)CC[C@H](N)C(=O)O)C(=O)CNC(=O)O)c(C)c(=O)n2c1=O` [Bimane-glutathione] as the compound, how does the Activity [1] read?
A: The Activity was “substrate []”.

Q: Which activity at 100 µM [2] does the source give for `CN(Cc1cnc2nc(N)nc(N)c2n1)c1ccc(C(=O)N[C@@H](CCC(=O)O)C(=O)O)cc1` [METHOTREXATE] here?
A: Its activity at 100 µM is 53%.

Q: For `CCc1oc2ccccc2c1C(=O)c1cc(Br)c(O)c(Br)c1` [BENZBROMARONE], which Activity [3] is on record?
A: Its Activity is 60%.

Q: How did the activity at 100 µM [4] turn out when `Nc1nc2nc[nH]c2c(=S)[nH]1` [THIOGUANINE] was run?
A: The activity at 100 µM was 53%.

Q: For `C[C@]12CC[C@H](OS(=O)(=O)O)CC1=CC[C@@H]1[C@@H]2CC[C@]2(C)C(=O)CC[C@@H]12` [PRASTERONE SULFURIC ACID], which IC50 [5] is on record?
A: The IC50 was 3 µM.

Q: Which Activity [6] does the source give for `NC(CCC(=O)NC(CSc1ccc([N+](=O)[O-])cc1[N+](=O)[O-])C(=O)NCC(=O)O)C(=O)O.O=[N+]([O-])c1ccc(Cl)c([N+](=O)[O-])c1` (configuration not stated) here?
A: The Activity was 27%.

Q: How did the Activity [7] turn out when `COc1ccc2c(c1)c(CC(=O)O)c(C)n2C(=O)c1ccc(Cl)cc1` [INDOMETHACIN] was run?
A: Its Activity is 74%.
